The results in this text go back to ChEMBL document CHEMBL1145008, “Relationship between stereochemistry and the beta3-adrenoceptor agonistic activity of 4'-hydroxynorephedrine derivative as an agent for treatment of frequent urination and urinary incontinence” (J Med Chem, 2003).

The structures appear in SMILES notation.

The target in experiment [1] is Beta-1 adrenergic receptor (Rattus norvegicus) (UniProt P18090).
Description: Mean concentration required to increase basal rate of rat atria by 20 beats per minute
The target is the same in experiment [2]. The source holds these as a separate data set.
Description: (§1) Agonistic activity for Beta-1 adrenergic receptor was estimated from it's chronotropic effect on rat atria
For experiment [3], the target named is Beta-2 adrenergic receptor (Rattus norvegicus) (UniProt P10608). The experiment can be described thus: Agonistic activity for Beta-2 adrenergic receptor was assessed by it's inhibitory effect on spontaneous contractions in isolated rat uterus.
Beta-2 adrenergic receptor (Rattus norvegicus), sequence (P10608 whole entry, looked up): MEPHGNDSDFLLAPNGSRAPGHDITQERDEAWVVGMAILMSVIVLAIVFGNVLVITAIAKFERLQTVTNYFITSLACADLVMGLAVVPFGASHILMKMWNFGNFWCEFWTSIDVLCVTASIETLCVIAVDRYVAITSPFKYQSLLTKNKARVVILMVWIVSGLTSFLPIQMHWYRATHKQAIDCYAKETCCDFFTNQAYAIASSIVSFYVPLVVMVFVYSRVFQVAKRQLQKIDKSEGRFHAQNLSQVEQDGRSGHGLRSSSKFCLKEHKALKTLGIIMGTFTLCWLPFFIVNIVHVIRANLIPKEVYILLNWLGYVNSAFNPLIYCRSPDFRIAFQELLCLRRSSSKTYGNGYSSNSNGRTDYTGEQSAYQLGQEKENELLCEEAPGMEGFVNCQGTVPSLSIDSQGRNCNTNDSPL
Experiment [4] has as its target Beta-1 adrenergic receptor (Rattus norvegicus) (UniProt P18090). The source holds these as a separate data set.
Description: as §1

Beta-1 adrenergic receptor (Rattus norvegicus), sequence (P18090 whole entry, looked up): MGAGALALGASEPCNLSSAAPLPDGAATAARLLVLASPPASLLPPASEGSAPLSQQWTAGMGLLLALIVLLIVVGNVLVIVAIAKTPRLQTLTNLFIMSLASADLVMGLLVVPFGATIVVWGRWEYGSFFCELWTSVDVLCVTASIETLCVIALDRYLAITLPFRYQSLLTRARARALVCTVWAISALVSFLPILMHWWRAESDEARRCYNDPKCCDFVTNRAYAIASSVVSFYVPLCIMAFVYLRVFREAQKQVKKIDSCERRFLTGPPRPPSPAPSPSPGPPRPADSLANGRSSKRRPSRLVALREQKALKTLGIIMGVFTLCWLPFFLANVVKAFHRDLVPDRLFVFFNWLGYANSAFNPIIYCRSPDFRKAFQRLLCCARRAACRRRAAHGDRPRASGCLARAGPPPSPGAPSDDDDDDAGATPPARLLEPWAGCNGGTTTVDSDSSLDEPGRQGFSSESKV

Regarding `C[C@H](NCCc1ccc(OCC(=O)O)c(Cl)c1)[C@@H](O)c1ccc(O)cc1`, the 20% effect level in experiment [1] (EC20) was put at 55 µM. The compound further showed a pEC20 in experiment [2] of 4.26. Take `CCOC(=O)COc1ccc(CCNC(C)C(O)c2ccc(O)cc2)cc1Cl` (stereo not given): it took 1.6 µM to reach the 20% level in experiment [1] (EC20). In experiment [2], this compound had a pEC20 of 5.8.

Take `C[C@H](Cc1ccc(OCC(=O)O)cc1)NC[C@H](O)c1cccc(Cl)c1` (relative stereo): in experiment [3], the IC50 is 0.00912 µM. `C[C@H](NCCc1ccc(OCC(=O)O)c(Cl)c1)[C@H](O)c1ccc(O)cc1` showed an EC20 in experiment [1] above 100 µM. `C[C@@H](NCCc1ccc(OCC(=O)O)c(Cl)c1)[C@H](O)c1ccc(O)cc1` gave a concentration for an effect of 20% (EC20) in experiment [1] of 21 µM. In addition, in experiment [2], the pEC20 is 4.68.

Compound `C[C@@H](NCCc1ccc(OCC(=O)O)c(Cl)c1)[C@@H](O)c1ccc(O)cc1` gave an EC20 in experiment [1] of 14 µM. Besides, the pEC20 in experiment [4] was found to be 4.86.
